# System: hepatic injury induced by carbon tetrachloride (CCl4)
# Test: mouse model of hepatic injury induced by carbon tetrachloride (CCl4); serum ALT and AST
# Assay type: in vivo
# Details: ICR mice; for increase in serum ALT compared to the vehicle control / increase in serum AST compared to the vehicle control: CCl4
# Experimental: An indomethacin-simvastatin conjugate (Ind-S) and lovastatin alone were evaluated for possible hepatoprotective activity in a mouse model of hepatic injury induced by carbon tetrachloride (CCl4). Ind-S at 0.5, 1 and 5 μmol/kg and lovastatin at 30 mg/kg were each administered intraperitoneally 0.5 hour before and at 4 and 8 hours after CCl4 challenge. The degree of hepatic injury was manifested by increases in alanine aminotransferase (ALT) and aspartate aminotransferase (AST) levels relative to the vehicle-treated animals. A decrease of 30% or more in serum ALT or AST is considered significant protective activity. The test substances were provided at the indicated concentrations. […] The test substances were administered intraperitoneally at 0.5 hour before and 4 and 8 hours after CCl4 administration to test mice. The dosing volume was 5 mL/kg. Male ICR derived mice weighing 24±2 g and provided by BioLasco Taiwan, a Charles River Laboratories Technology Licensee, were used in the study Space allocation for animals was 29×18×13 cm for 10 mice. The animals were housed in APEC^R cages. All animals were maintained in a hygienic environment under controlled temperature (22-24° C.) and humidity (60%-70%) with 12 hours light/dark cycles for at least one week prior to use with free access to standard lab chow (LabDiet Rodent Diet, PMI Nutrition International, USA) and tap water. Seven groups of five ICR derived male mice (weighing 24±2 g) were used. Each animal was challenged with a single dose of carbon tetrachloride (CCl4, 0.1 mL/kg in 50% olive oil, PO). The test substances were administered intraperitoneally at 30 minutes before and 4, 8 hours after carbon tetrachloride challenge and the animals were sacrificed 24 hours later. Serum alanine aminotransferase (ALT) and aspartate aminotransferase (AST) levels were measured by optimized UV method using a HITACHI automatic analyzer (model 7050). Silymarin (300 mg/kg, PO) as the positive control agent was administered orally to test animals at the same time.
compound,measurement,setting,value
"COc1ccc2c(c1)c(CC(=O)OCCNC(=O)CCC(C)(C)C(=O)O[C@H]1C[C@@H](C)C=C3C=C[C@H](C)[C@H](CC[C@@H]4C[C@@H](O)CC(=O)O4)[C@H]31)c(C)n2C(=O)c1ccc(Cl)cc1 [Ind-S, 6(R)-[2-[8(S)-{4-(2-{2-[1-(4-Chloro-benzoyl)-5-methoxy-2-methyl-1H-indol-3-yl]-acetoxy}-ethylcarbamoyl)-2,2-dimethyl-butyryloxy}-2(S),6(R)-dimethyl-1,2,6,7,8,8,a(R)-hexahydronaphthyl-1(S)]ethyl]-4(R)-hydroxy-3,4,5,6-tetrahydro-2H-Pyran-2-one]",reduction in serum ALT level relative to the vehicle-treated group,"5 μmol/kg IP, 0.5 h before and 4 and 8 h after CCl4, non-significant",21%
same,reduction of AST activity relative to the vehicle-treated group,"5 μmol/kg IP, 0.5 h before and 4 and 8 h after CCl4, serum at 24 h",34%
CC[C@H](C)C(=O)O[C@H]1C[C@@H](C)C=C2C=C[C@H](C)[C@H](CC[C@@H]3C[C@@H](O)CC(=O)O3)[C@H]21 [Lovastatin],increase in serum ALT compared to the vehicle control,30 mg/kg IP,17%
same,increase in serum AST compared to the vehicle control,30 mg/kg IP,38%
COc1ccc2c(c1)c(CC(=O)O)c(C)n2C(=O)c1ccc(Cl)cc1 [indomethacin],increase in serum ALT compared to the vehicle control,5 μmol/kg IP,39%
same,increase in serum AST compared to the vehicle control,5 μmol/kg IP,73%
